Measured values reported in patent publication US9399645B2, “Inhibitors of HIV replication” (Boehringer Ingelheim International GmbH, priority 2011, dated 2016).

Experiments:
HIV-1 = assay: C8166 HIV-1 Luciferase Assay (EC50); assay type: cell-based; conditions: Human immunodeficiency virus 1, C8166, 72 h
Description: C8166 HIV-1 Luciferase Assay (Ec50)
The assay used to measure inhibition of HIV replication is as described in WO 2004/050643, pages 73-75, incorporated herein by reference, with the following modifications:
Serial dilutions of HIV-1 inhibitors are prepared in complete media from DMSO stock solutions. Eleven serial dilutions of desired concentration are prepared in a 1 mL deep well titer plate (96 wells). The 12th well contains complete media with no inhibitor and serves as the positive control. All samples contain the same concentration of DMSO (<0.1% DMSO). Inhibitor is added, to triplicate wells, of a 96 well tissue culture treated clear view black microtiter plate (Corning Costar catalogue #3904). The total volume per well is 200 μL of media containing the cells and inhibitor. The last row is reserved for uninfected C8166 LTRIuc cells to serve as the background blank control and the first row is media alone.
Count C8166 LTRIuc cells and place in a minimal volume of complete RPMI 1640 in a tissue culture flask (ex. 30×10^6 cells in 10 mL media/25 cm^2 flask). Infect cells with HIV-1 at a moi of 0.005. Incubate cells for 1.5 h at 37° C. on a rotating rack in a 5% CO2 incubator. Resuspend cells in complete RPMI to give a final concentration of 25,000-cells/well. Add cells to wells of 96 well microtiter plate containing inhibitors. Add 25,000 uninfected C8166-LTRIuc cells/well in 200 μL complete RPMI to last row for background control. Incubate cells at 37° C. in 5% CO2 incubator for 3 days.
50 μL Steady Glo (luciferase substrate T112=5 hours Promega catalogue # E2520) is added to each well of the 96 well plate. The relative light units (RLU) of luciferase are determined using a luminescence plate reader. The calculated % inhibition values are used to determine EC50, slope factor (n) and maximum inhibition (Imax).

[1] = Caco-2 Permeability Assay; assay type: in vitro ADME; conditions: human, apparent permeability A to B, compound at 10 μM, apical buffer pH 6.0, basolateral buffer pH 7.4, read-out: Papp (cm/sec, *10^−6)
Source text: Caco-2 Permeability Assay Caco-2 cells are purchased from Cell Culture Services as frozen instant cells at a concentration of 1*10^7 cells/vial. DMEM+glutamax-I culture media is purchased from Gibco (10569). Fetal bovine serum (FBS) is purchased from HyClone (SH30396.03). Pennicilin/Streptomycin antibiotics are purchased from Gibco (15140). MEM non-essential amino acids are purchased from Gibco (11140). Hank's balanced salt solution (HBSS) is purchased from Gibco (14025). Bovine serum albumin (BSA) is purchased from Sigma-Aldrich (A7906). MES low moisture is purchased from Sigma-Aldrich (M3671). HEPES is purchased from Sigma-Aldrich (H3375). Dimethyl Sulfoxide (DMSO) is purchased from EMD (MX1457-6). Complete DMEM media is prepared by adding 1 L of FBS, 100 mL of pen/strep and 110 mL of MEM non essential amino acids to 10 L of DMEM+glutamax-I. […] Caco-2 cells are seeded on HTS transwell 24-well plates purchased from Corning (3397). These polycarbonate membrane plates have a diameter of […] and pore size of 0.4 μm. The Caco-2 cells vial is thawed in a 37° C. water bath until only a small ice pellet is left. The vial is then transferred to the laminar flow hood and its exterior is extensively washed with 70% ethanol. The total content of the vial (2 mL) is transferred into a 50 mL tube containing 38 mL of complete DMEM. […] The seeding is done by the Hamilton star robotic station which is controlled with the Venus program. Each well will receive 600 μL of complete DMEM on its basolateral side and 200 μL of cells on its apical side. Each well receives 50 000 cells. The 24-well plates are then returned to an automated Liconic STX110 incubator set at 37° C., 5% CO2 and 100% humidity. The culture media for the cells is changed every two days except on weekends. These cells are maintained for a period of two weeks prior to the running of the permeability assay. Permeability assays are usually performed between day 15 and 18 after the initial seeding. […] Controls for the assay are mannitol for tight junction determination and Digoxin for efflux transporter (p-glycoprotein) expression. On the day of the assay, each compound is diluted to 10 μM in the buffer (apical for A to B). 6 μl of the 5 mM DMSO stock is added to 3 mL of the buffer in a 24-well 10 mL deep plate covered with a lid. The plate containing all the diluted compounds is spun for 10 min at 3000 rpm in a Rotanta 46 RSC centrifuge from Hettich to remove unsoluble compound. This dilution is used to add at the start of the incubation. Each compound is tested in duplicate. On the day of the assay, the culture media of the 24-well plate is removed and replaced with warm HBSS. The HBSS is then also removed and the Apical and Basolatral buffer are added to their respective side of the transwells. These steps are performed by the Hamilton Star robotic station. The plate is then placed in a 37° C. incubator and is left to equilibrate for 30 min. After 30 min of incubation a background sample (25 μL from each well) is taken from the receiver side (Basolateral for A to B), and replenished with warm buffer. These samples and all others afterwards are kept in a 96-well 1 mL plate. To start the assay, the donor compartment (apical for A to B) is emptied and replaced with new buffer containing the compound at 10 μM. Once the compounds are added, the plate is returned to the 37° C. incubator and the timer is started. In order to determine how much compound is actually added to each well, a 50 μL sample is taken from each compound dilution, this sample is refered to as the load. These steps and the following are performed by the Tecan Freedom EVO robotic station controlled via the Gemini software. For A-to-B Assay: Samples (190 μL) are taken from each basolateral (receiver) chamber at time points 0, 60, 120 and 180 min or at time points 0, 30, 60 and 90 min. From the 190 μL taken, 50 μL is transferred to the receiving plate and 140 μL is discarded.

| SMILES | EC50 (HIV-1) [nM] | Papp A→B at 10 μM [1] [×10⁻⁶ cm/s] |
| --- | --- | --- |
| C[C@@H]1C[C@H](n2c(=O)nc(-c3cnn(C)c3)c3oc4cnc(-c5cnn(C)c5)cc4c32)C[C@H](C)O1 [Compound 1084] | 120 | 20.5 |
| Cn1cc(-c2cc3c(cc2F)oc2c(-c4ccc(N5CCC5)nc4)nc(=O)n(CCC4CCCO4)c23)cn1 (stereo not drawn) [Compound 1033] | 7.6 | 6.9 |
| CC[C@H]1C[C@@H](n2c(=O)nc(-c3cnn(C)c3)c3oc4c(C)cc(-c5cnn(C)c5)cc4c32)CCO1 [Compound 1058] | 0.6 | 16.6 |
| CNc1ccc(-c2nc(=O)n(CCC3CCCCO3)c3c2oc2ccc(-c4cnn(C)c4)cc23)cn1 (stereo not drawn) [Compound 1036] | 6.8 | 7.6 |
| CC[C@H]1C[C@@H](n2c(=O)nc(-c3cnn(C)c3)c3oc4cnc(-c5cnn(C)c5)cc4c32)CCCO1 [Compound 1087] | 9.7 | 23.1 |
| CC[C@H]1C[C@@H](n2c(=O)nc(-c3cnn(C)c3)c3oc4c(C)nc(-c5cnn(C)c5)cc4c32)CCO1 [Compound 1082] | 3.3 | 18.9 |
| CC[C@H]1C[C@@H](n2c(=O)nc(-c3cnn(C)c3)c3oc4cc(F)c(-c5cnc(C)o5)cc4c32)CCO1 [Compound 1044] | 22 | 12.4 |
| CC[C@@H]1C[C@H](n2c(=O)nc(-c3cnn(C)c3)c3oc4cnc(-c5cccnc5)cc4c32)CCO1 [Compound 1086] | 18 | 22.5 |
| CC[C@H]1C[C@@H](n2c(=O)nc(-c3cnn(C)c3)c3oc4c(F)cc(-c5cn(C)cn5)cc4c32)CCO1 [Compound 1097] | 3.9 | 37.1 |
| COc1cc2oc3c(-c4cnn(C)c4)nc(=O)n(CC[C@@H]4CCCO4)c3c2cc1-c1cnn(C)c1 [Compound 1056] | 8.3 | 6.7 |
| CC[C@H]1C[C@@H](n2c(=O)nc(-c3cnn(CC)c3)c3oc4ncc(-c5cnn(CC)c5)cc4c32)CCO1 [Compound 1072] | 110 | 21.4 |
| CC[C@H]1C[C@@H](n2c(=O)nc(-c3cnn(C)c3)c3oc4cc(C)c(-c5cnn(C)c5)cc4c32)CCO1 [Compound 1050] | 7.7 | 19.1 |
| CC[C@H]1C[C@@H](n2c(=O)nc(-c3cnn(C)c3)c3oc4ccc(-c5cnco5)nc4c32)CCO1 [Compound 1007] | 8.4 | 19.7 |
| CC[C@H]1C[C@@H](n2c(=O)nc(-c3cnn(C)c3)c3oc4ccc(-c5cn(C)cn5)nc4c32)C[C@@H](C)O1 [Compound 1095] | 8.6 | 39.8 |
| CC[C@H]1C[C@@H](n2c(=O)nc(-c3cccnc3)c3oc4cc(C#N)c(-c5cnn(C)c5)nc4c32)CCO1 [Compound 1019] | 52 | 22.5 |
| CC[C@H]1C[C@@H](n2c(=O)nc(-c3cnn(C)c3)c3oc4ccc(-c5cnn(CC)c5)cc4c32)CCO1 [Compound 1041] | 6.6 | 26.9 |
| CC[C@H]1C[C@@H](n2c(=O)nc(-c3ccc(OC)nc3)c3oc4ccc(-c5cn(C)cn5)nc4c32)CCO1 [Compound 1100] | 6.2 | 29.3 |

| SMILES | EC50 (HIV-1) [nM] | Papp A→B at 10 μM [1] [×10⁻⁶ cm/s] |
| --- | --- | --- |
| CC[C@H]1C[C@@H](n2c(=O)nc(-c3cnn(C)c3)c3oc4cnc(-c5cnn(CCOC)c5)cc4c32)CCO1 [Compound 1085] | 120 | 19.2 |
| CC[C@H]1C[C@@H](n2c(=O)nc(-c3cnn(C)c3)c3oc4ccc(-c5ccn(C)n5)nc4c32)CCO1 [Compound 1003] | 6.4 | 22.2 |
| CC[C@H]1C[C@@H](n2c(=O)nc(-c3cnn(C)c3)c3oc4ccc(-c5cnn(C)c5)nc4c32)C[C@@H](C)O1 [Compound 1009] | 4.6 | 27.6 |
| CC[C@H]1C[C@@H](n2c(=O)nc(-c3ccccn3)c3oc4ccc(-c5cn(C)cn5)nc4c32)CCO1 [Compound 1102] | 57 | 24.6 |
| CC[C@H]1C[C@@H](n2c(=O)nc(-c3cnn(C)c3)c3oc4cc(F)c(-c5cnn(C)c5)cc4c32)CCO1 [Compound 1042] | 6.9 | 23.4 |
| CC[C@H]1C[C@@H](n2c(=O)nc(-c3cnn(C)c3)c3oc4cc(C#N)c(-c5cccnc5)cc4c32)CCO1 [Compound 1051] | 220 | 15.4 |
| CC[C@H]1C[C@@H](n2c(=O)nc(-c3cnn(C)c3)c3oc4cc(C#N)c(-c5ccn(C)n5)cc4c32)CCO1 [Compound 1054] | 32.2 | 20.3 |
| CC[C@H]1C[C@@H](n2c(=O)nc(-c3cnn(C)c3)c3oc4ccc(-c5cn(C)cn5)nc4c32)CCO1 [Compound 1014] | 5.2 | 20.7 |
| CC[C@H]1C[C@@H](n2c(=O)nc(-c3cnn(C)c3)c3oc4cnc(-c5cnco5)cc4c32)CCO1 [Compound 1089] | 30 | 18.6 |
| CC[C@H]1C[C@@H](n2c(=O)nc(-c3cnn(C)c3)c3oc4c(OC)cc(-c5cnn(C)c5)cc4c32)CCO1 [Compound 1057] | 2.2 | 14.9 |
| Cn1cc(-c2ccc3oc4c(-c5ccc(N6CCOCC6)nc5)nc(=O)n(CCC5CCCO5)c4c3c2)cn1 (stereo not drawn) [Compound 1026] | 27.9 | 7.4 |
| CC[C@H]1C[C@@H](n2c(=O)nc(-c3ccc(OC)cn3)c3oc4ccc(-c5cn(C)cn5)nc4c32)CCO1 [Compound 1101] | 17 | 32 |
| CNc1ccc(-c2nc(=O)n(CCC3CCCO3)c3c2oc2ccc(-c4cncs4)cc23)cn1 (stereo not drawn) [Compound 1028] | 50 | 19.9 |
| CC[C@H]1C[C@@H](n2c(=O)nc(-c3cnn(C)c3)c3oc4cnc(-c5cn(C)cn5)cc4c32)C[C@@H](C)O1 [Compound 1103] | 56 | 18.5 |
| CC[C@H]1C[C@@H](n2c(=O)nc(-c3cnn(C)c3)c3oc4c(C#N)c(C)c(-c5cnn(C)c5)cc4c32)CCO1 [Compound 1060] | 140 | 13 |
| CNc1ccc(-c2nc(=O)n(CCC3CCCO3)c3c2oc2ncc(-c4cnn(CC5CC5)c4)cc23)cn1 (stereo not drawn) [Compound 1068] | 78 | 8.1 |
